Reference: PubChem BioAssay (NCI)
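Five concentrations, 48 hours, 96-well plates. TGI: concentration producing complete growth inhibition.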

What was measured:
Experiment in all cases: NCI-60 cell line screen, 48 h
[1] = tested on: M14 melanoma
[2] = tested on: KM12 colon
[3] = tested on: RPMI-8226 leukemia
[4] = tested on: LOX IMVI melanoma
[5] = tested on: PC-3 prostate
[6] = tested on: SNB-19 CNS
[7] = tested on: HL-60(TB) leukemia
[8] = tested on: COLO 205 colon
[9] = tested on: SF-295 CNS
[10] = tested on: RXF 393 renal
[11] = tested on: 786-0 renal
[12] = tested on: UACC-62 melanoma
[13] = tested on: SK-OV-3 ovarian
[14] = tested on: OVCAR-8 ovarian
[15] = tested on: ACHN renal
[16] = tested on: NCI-H226 lung
[17] = tested on: CAKI-1 renal
[18] = tested on: SK-MEL-28 melanoma
[19] = tested on: SN12C renal
[20] = tested on: HOP-62 NSCLC
[21] = tested on: MDA-N
[22] = tested on: U251 CNS
[23] = tested on: HCT-116 colon
[24] = tested on: A549 NSCLC
[25] = tested on: HT29 colon
[26] = tested on: HOP-92 NSCLC
[27] = tested on: OVCAR-3 ovarian
[28] = tested on: UO-31 renal
[29] = tested on: EKVX NSCLC
[30] = tested on: MALME-3M melanoma
[31] = tested on: MOLT-4 leukemia
[32] = tested on: HCC-2998 colon
[33] = tested on: NCI/ADR-RES ovarian
[34] = tested on: SR leukemia
[35] = tested on: NCI-H522 lung
[36] = tested on: MCF7 breast
[37] = tested on: DU-145 prostate
[38] = tested on: SK-MEL-5 melanoma
[39] = tested on: HCT-15 colon
[40] = tested on: NCI-H23 lung
[41] = tested on: A498 renal
[42] = tested on: OVCAR-5 ovarian
[43] = tested on: NCI-H460 lung
[44] = tested on: MDA-MB-231 breast
[45] = tested on: SNB-75 CNS
[46] = tested on: SW-620 colon
[47] = tested on: OVCAR-4 ovarian
[48] = tested on: MDA-MB-435
[49] = tested on: BT-549 breast
[50] = tested on: CCRF-CEM leukemia
[51] = tested on: TK-10 renal
[52] = tested on: HS 578T breast
[53] = tested on: K-562 leukemia
[54] = tested on: IGROV1 ovarian

Measured: TGI

O=C(NC(Cc1cnc[nH]1)C(=O)N1CCCC1)C1CCCC1 (centres undefined)
> 100 µM: all assays above
